Test results published in US20260092071A1, “COMPOUNDS AND COMPOSITIONS AS SMARCA2/4 DEGRADERS AND USES THEREOF” (REGENTS OF THE UNIVERSITY OF MICHIGAN, priority 2022, published 2026).
Read-outs that look alike come from different tables or passages of the source.

Columns and labels:
SMARCA4 = SMARCA4 (Homo sapiens, UniProt P51532); experiment: HiBiT assay for protein degradation, Hela SMARCA4-HiBiT cells (A series); type: cell-based; design: fuse HiBiT to the carboxy terminus of SMARCA2 (Promega CS302365) or SMARCA4 (Promega CS3023225); host or cells: HeLa (CRISPR/Cas9 HiBiT knock-in); conditions: for DC50: read-out: SMARC A4 Hela HiBit DC50
Chain of SMARCA4 (P51532 whole entry): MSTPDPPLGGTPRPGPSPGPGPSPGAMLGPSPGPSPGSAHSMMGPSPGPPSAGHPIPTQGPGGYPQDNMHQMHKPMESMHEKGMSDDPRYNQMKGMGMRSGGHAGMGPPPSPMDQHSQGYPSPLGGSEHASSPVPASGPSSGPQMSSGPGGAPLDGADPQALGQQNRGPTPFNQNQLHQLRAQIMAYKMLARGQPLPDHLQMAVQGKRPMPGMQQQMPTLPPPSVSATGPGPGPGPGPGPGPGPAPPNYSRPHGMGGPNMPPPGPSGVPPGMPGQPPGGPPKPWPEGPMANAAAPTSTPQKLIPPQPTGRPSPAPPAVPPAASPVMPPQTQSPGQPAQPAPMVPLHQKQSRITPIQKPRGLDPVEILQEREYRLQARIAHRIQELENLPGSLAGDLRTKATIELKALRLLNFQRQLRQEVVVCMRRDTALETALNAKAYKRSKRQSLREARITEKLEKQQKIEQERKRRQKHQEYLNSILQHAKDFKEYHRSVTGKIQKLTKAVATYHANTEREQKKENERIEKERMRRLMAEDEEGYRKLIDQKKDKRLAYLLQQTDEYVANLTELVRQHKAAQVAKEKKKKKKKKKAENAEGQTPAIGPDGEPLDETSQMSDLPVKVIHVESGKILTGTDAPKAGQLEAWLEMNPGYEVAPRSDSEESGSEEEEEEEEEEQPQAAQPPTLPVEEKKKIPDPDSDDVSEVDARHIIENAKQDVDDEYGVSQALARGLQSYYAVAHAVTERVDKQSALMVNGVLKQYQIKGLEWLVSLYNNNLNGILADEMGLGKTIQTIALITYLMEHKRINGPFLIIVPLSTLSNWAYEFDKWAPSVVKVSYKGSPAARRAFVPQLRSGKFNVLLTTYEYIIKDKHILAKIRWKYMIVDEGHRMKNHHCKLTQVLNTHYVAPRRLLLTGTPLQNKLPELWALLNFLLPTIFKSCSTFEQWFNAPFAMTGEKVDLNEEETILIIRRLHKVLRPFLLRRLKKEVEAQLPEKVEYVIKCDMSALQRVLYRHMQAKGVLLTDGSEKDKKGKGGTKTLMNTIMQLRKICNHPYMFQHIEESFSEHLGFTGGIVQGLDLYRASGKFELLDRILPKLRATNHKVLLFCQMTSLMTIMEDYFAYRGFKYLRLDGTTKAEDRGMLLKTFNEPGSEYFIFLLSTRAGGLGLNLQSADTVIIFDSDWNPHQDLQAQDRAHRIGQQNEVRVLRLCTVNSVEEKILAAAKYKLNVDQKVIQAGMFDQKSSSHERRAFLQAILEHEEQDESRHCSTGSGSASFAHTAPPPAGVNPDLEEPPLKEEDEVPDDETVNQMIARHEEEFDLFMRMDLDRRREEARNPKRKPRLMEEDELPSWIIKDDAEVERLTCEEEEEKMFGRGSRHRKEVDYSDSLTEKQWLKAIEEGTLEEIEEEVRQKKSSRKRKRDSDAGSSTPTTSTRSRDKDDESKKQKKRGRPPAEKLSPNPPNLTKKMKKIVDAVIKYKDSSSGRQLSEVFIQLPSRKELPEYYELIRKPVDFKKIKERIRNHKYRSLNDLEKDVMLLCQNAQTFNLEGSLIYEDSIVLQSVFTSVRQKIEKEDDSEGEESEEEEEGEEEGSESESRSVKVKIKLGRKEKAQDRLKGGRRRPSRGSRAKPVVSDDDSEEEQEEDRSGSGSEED
Outline: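 SMARCA4 degradation was measured in HeLa cells in which HiBiT had been knocked into the SMARCA4 carboxy terminus via CRISPR/Cas9 (Promega CS3023225). Cells were maintained in DMEM with FBS and penicillin-streptomycin. At the end of treatment, SMARCA4 levels were read by lytic HiBiT luminescence (Nano-Glo®, Promega N3050), and data were analyzed with GraphPad Prism.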

SMARCA2 = SMARCA2 (Homo sapiens, UniProt P51531); experiment: HiBiT assay for protein degradation, Hela SMARCA2-HiBiT cells (A series); type: cell-based; design: Hela cells were genetically modified via CRISPR/Cas9 to fuse HiBiT to the carboxy terminus of SMARCA2; host or cells: HeLa (CRISPR/Cas9 HiBiT knock-in); conditions: for DC50: read-out: SMARC A2 Hela HiBit DC50; for Dmax: read-out: SMARC A2 Hela HiBit Dmax (%);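 on SMARC A2 Hela HiBit Dmax (%): 24 h compound treatment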
Chain of SMARCA2 (P51531 whole entry): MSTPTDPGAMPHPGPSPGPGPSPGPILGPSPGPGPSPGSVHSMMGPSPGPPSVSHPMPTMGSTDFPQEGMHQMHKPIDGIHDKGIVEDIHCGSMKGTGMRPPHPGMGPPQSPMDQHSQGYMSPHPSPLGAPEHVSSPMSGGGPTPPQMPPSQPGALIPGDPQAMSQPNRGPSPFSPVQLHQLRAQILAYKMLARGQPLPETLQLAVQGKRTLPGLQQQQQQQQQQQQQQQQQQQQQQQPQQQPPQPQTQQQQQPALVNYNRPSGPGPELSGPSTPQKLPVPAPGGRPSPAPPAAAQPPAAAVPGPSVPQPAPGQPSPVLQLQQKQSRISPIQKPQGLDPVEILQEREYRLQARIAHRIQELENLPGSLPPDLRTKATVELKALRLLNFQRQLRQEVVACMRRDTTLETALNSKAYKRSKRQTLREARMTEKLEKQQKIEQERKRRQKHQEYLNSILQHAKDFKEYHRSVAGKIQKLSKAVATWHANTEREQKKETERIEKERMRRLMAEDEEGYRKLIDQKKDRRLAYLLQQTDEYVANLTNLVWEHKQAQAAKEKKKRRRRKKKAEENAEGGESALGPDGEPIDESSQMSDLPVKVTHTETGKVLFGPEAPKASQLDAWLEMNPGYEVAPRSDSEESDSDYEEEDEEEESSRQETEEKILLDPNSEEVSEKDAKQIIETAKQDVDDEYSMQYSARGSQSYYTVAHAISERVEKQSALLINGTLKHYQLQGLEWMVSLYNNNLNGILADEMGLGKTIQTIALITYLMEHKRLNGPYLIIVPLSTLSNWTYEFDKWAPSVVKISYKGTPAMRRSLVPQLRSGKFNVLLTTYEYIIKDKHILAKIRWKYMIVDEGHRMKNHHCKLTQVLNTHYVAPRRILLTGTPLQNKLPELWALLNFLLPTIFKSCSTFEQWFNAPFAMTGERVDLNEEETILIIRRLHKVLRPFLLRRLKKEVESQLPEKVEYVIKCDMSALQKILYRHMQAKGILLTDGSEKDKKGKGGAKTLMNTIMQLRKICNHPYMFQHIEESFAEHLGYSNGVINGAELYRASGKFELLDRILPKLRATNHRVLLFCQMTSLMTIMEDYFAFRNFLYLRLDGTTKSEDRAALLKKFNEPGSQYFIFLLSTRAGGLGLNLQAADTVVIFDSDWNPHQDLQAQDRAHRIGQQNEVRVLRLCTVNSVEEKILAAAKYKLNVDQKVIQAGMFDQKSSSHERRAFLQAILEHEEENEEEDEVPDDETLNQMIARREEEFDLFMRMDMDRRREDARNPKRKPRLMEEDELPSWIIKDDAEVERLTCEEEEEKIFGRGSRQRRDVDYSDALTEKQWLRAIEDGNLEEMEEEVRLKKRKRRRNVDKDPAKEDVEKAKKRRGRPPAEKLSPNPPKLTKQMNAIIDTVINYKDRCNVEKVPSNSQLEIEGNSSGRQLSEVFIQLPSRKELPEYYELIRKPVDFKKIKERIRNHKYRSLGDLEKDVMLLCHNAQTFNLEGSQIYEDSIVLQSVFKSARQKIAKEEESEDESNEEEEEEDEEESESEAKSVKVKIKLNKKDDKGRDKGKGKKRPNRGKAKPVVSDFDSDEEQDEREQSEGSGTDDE
Outline: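 SMARCA2 degradation was measured in HeLa cells whose endogenous SMARCA2 carries a carboxy-terminal HiBiT tag introduced by CRISPR/Cas9 (Promega CS302365). Cells were maintained in DMEM with FBS and penicillin-streptomycin. SMARCA2 levels were read at the end of the experiment by Nano-Glo® HiBiT lytic luminescence (Promega N3050) and analyzed in GraphPad Prism.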

[1] = Hela SMARCA4-HiBiT cells, 24 hours treatment
[2] = Hela SMARCA4-HiBiT cells, 24 hours treatment, read-out: SMARC A4 Hela HiBit Dmax(%)
[3] = Hela SMARCA2-HiBiT cells, 24 hours treatment
[4] = Hela SMARCA4-HiBiT cells, 24 hours treatment, read-out: SMARC A4 Hela HiBit Dmax
[5] = HeLa, read-out: SMARC A4 Hela HiBit Dmax(%)

## Cc1ncsc1-c1ccc([C@H](CCCCCN2CCC(c3ccc4c(c3)C3(CCCCC3)c3nc(=O)c5c(Br)cccc5n3-4)CC2)NC(=O)[C@H]2C[C@H](O)CN2C(=O)[C@@H](n2cc(C3CC3)nn2)C(C)(C)C)cc1 [Compound A35, (2R,4S)—N—((S)-6-(4-(4′-bromo-5′-oxo-5′H-spiro[cyclohexane-1,7′-indolo[1,2-a]quinazolin]-9′-yl)piperidin-1-yl)-1-(4-(4-methylthiazol-5-yl)phenyl)hexyl)-1-((S)-2-(4-cyclopropyl-1H-1,2,3-triazol-1-yl)-3,3-dimethylbutanoyl)-4-hydroxypyrrolidine-2-carboxamide]
SMARCA4; [1]
  DC50: < 100 nM
SMARCA4; [2]
  Dmax: > 90%
SMARCA2; [3]
  DC50: < 100 nM
  Dmax: > 90%

## Cc1ncsc1-c1ccc([C@H](C)NC(=O)[C@@H]2C[C@@H](O)CN2C(=O)[C@@H](NC(=O)C23CCC(CN4CCC(c5ccc6c(c5)C5(CCCCC5)c5nc(=O)c7c(Br)cccc7n5-6)CC4)(CC2)CC3)C(C)(C)C)cc1 [Compound A27, (2S,4R)-1-((S)-2-(4-((4-(4′-bromo-5′-oxo-5′H-spiro[cyclohexane-1,7′-indolo[1,2-a]quinazolin]-9′-yl)piperidin-1-yl)methyl)bicyclo[2.2.2]octane-1-carboxamido)-3,3-dimethylbutanoyl)-4-hydroxy-N—((S)-1-(4-(4-methylthiazol-5-yl)phenyl)ethyl)pyrrolidine-2-carboxamide]
SMARCA4; [2]
  Dmax: 50 to 69%
SMARCA4
  DC50: 501 to 1000 nM
SMARCA2; HeLa
  Dmax: 70 to 90%
SMARCA2
  DC50: < 100 nM

## Cc1ncsc1-c1ccc([C@H](C)NC(=O)[C@@H]2C[C@@H](O)CN2C(=O)[C@@H](n2cc([C@H]3CC[C@H](CN4CCC(c5cnc6c(c5)-n5c(nc(=O)c7c(Br)cccc75)C65CCCCC5)CC4)CC3)nn2)C(C)(C)C)cc1 [Compound A76, (2S,4R)-1-((S)-2-(4-((1r,4S)-4-((4-(4′-bromo-5′-oxo-5′H-spiro[cyclohexane-1,7′-pyrido[2′,3′: 4,5]pyrrolo[1,2-a]quinazolin]-10′-yl)piperidin-1-yl)methyl)cyclohexyl)-1H-1,2,3-triazol-1-yl)-3,3-dimethylbutanoyl)-4-hydroxy-N—((S)-1-(4-(4-methylthiazol-5-yl)phenyl)ethyl)pyrrolidine-2-carboxamide]
SMARCA4; [1]
  DC50: > 1000 nM
SMARCA4; [4]
  Dmax: < 50%
SMARCA2; [3]
  DC50: < 10 nM
  Dmax: > 90%

## Cc1ncsc1-c1ccc([C@H](C)NC(=O)[C@@H]2C[C@@H](O)CN2C(=O)[C@@H](n2cc([C@H]3CC[C@H](CN4CCC(c5ccc6c(c5)-n5c(nc(=O)c7c(Br)cccc75)C65CCCCC5)CC4)CC3)nn2)C(C)(C)C)cc1 [Compound A62, (2S,4R)-1-((S)-2-(4-((1r,4S)-4-((4-(4′-bromo-5′-oxo-5′H-spiro[cyclohexane-1,7′-indolo[1,2-a]quinazolin]-10′-yl)piperidin-1-yl)methyl)cyclohexyl)-1H-1,2,3-triazol-1-yl)-3,3-dimethylbutanoyl)-4-hydroxy-N—((S)-1-(4-(4-methylthiazol-5-yl)phenyl)ethyl)pyrrolidine-2-carboxamide]
SMARCA4; [5]
  Dmax: 70 to 90%
SMARCA4
  DC50: < 100 nM
SMARCA2; HeLa
  Dmax: > 90%
SMARCA2
  DC50: < 100 nM

## Cc1ncsc1-c1ccc([C@H](CCCCN2CCC(c3ccc4c(c3)-n3c(nc(=O)c5c(Cl)cccc53)C43CCOCC3)CC2)NC(=O)[C@@H]2C[C@@H](O)CN2C(=O)[C@@H](NC(=O)C2(F)CC2)C(C)(C)C)cc1 [Compound A10, (2S,4R)—N—((S)-5-(4-(4-chloro-5-oxo-2′,3′,5′,6′-tetrahydro-5H-spiro[indolo[1,2-a]quinazoline-7,4′-pyran]-10-yl)piperidin-1-yl)-1-(4-(4-methylthiazol-5-yl)phenyl)pentyl)-1-((S)-2-(1-fluorocyclopropane-1-carboxamido)-3,3-dimethylbutanoyl)-4-hydroxypyrrolidine-2-carboxamide]
SMARCA4; [1]
  SMARC A4 Hela HiBit DC50(nM): No fit
SMARCA4; [2]
  Dmax: < 50%
SMARCA2; [3]
  DC50: 501 to 1000 nM
  Dmax: 50 to 69%

## Cc1ncsc1-c1ccc([C@H](C)NC(=O)[C@@H]2C[C@@H](O)CN2C(=O)[C@@H](NC(=O)CCCCN2CCC(c3ccc4c(c3)C3(CCCCC3)c3nc(=O)c5c(Cl)cccc5n3-4)CC2)C(C)(C)C)cc1 [Compound A8, (2S,4R)-1-((S)-2-(5-(4-(4′-chloro-5′-oxo-5′H-spiro[cyclohexane-1,7′-indolo[1,2-a]quinazolin]-9′-yl)piperidin-1-yl)pentanamido)-3,3-dimethylbutanoyl)-4-hydroxy-N—((S)-1-(4-(4-methylthiazol-5-yl)phenyl)ethyl) pyrrolidine-2-carboxamide]
SMARCA4; [5]
  Dmax: < 50%
SMARCA4; [1]
  DC50: > 1000 nM
SMARCA2; HeLa
  Dmax: 70 to 90%
SMARCA2; [3]
  DC50: 100 to 500 nM

## Cc1ncsc1-c1ccc([C@H](CN2CCOCC2)NC(=O)[C@@H]2C[C@@H](O)CN2C(=O)[C@@H](NC(=O)[C@H]2CC[C@H](CN3CCC(c4ccc5c(c4)C4(CCCCC4)c4nc(=O)c6c(Br)cccc6n4-5)CC3)CC2)C(C)(C)C)cc1 [Compound A16, (2S,4R)-1-((S)-2-((1r,4S)-4-((4-(4′-bromo-5′-oxo-5′H-spiro[cyclohexane-1,7′-indolo[1,2-a]quinazolin]-9′-yl)piperidin-1-yl)methyl)cyclohexane-1-carboxamido)-3,3-dimethylbutanoyl)-4-hydroxy-N—((R)-1-(4-(4-methylthiazol-5-yl)phenyl)-2-morpholinoethyl)pyrrolidine-2-carboxamide]
SMARCA4; [1]
  DC50: 501 to 1000 nM
SMARCA4; [2]
  Dmax: 50 to 69%
SMARCA2; [3]
  DC50: < 100 nM
  Dmax: > 90%

## Cc1ncsc1-c1ccc([C@H](CN2CCOCC2)NC(=O)[C@@H]2C[C@@H](O)CN2C(=O)[C@@H](n2cc([C@H]3CC[C@H](CN4CCC(c5ccc6c(c5)-n5c(nc(=O)c7c(Br)cccc75)C65CCCCC5)CC4)CC3)nn2)C(C)(C)O)cc1 [Compound A160, (2S,4R)-1-((S)-2-(4-((1r,4S)-4-((4-(4′-bromo-5′-oxo-5′H-spiro[cyclohexane-1,7′-indolo[1,2-a]quinazolin]-10′-yl)piperidin-1-yl)methyl)cyclohexyl)-1H-1,2,3-triazol-1-yl)-3-hydroxy-3-methylbutanoyl)-4-hydroxy-N-((R)-1-(4-(4-methylthiazol-5-yl)phenyl)-2-morpholinoethyl)pyrrolidine-2-carboxamide]
SMARCA4; [1]
  DC50: > 1000 nM
SMARCA4; [4]
  Dmax: 50 to 69%
SMARCA2; [3]
  DC50: < 10 nM
  Dmax: > 90%

## Cc1ncsc1-c1ccc([C@@H](NC(=O)[C@@H]2C[C@@H](O)CN2C(=O)[C@@H](n2cc(C3CC3)nn2)C(C)(C)C)C(=O)N2CCC(CN3CCC(c4ccc5c(c4)-n4c(nc(=O)c6c(Br)cccc64)C54CCCCC4)CC3)CC2)cc1 [Compound A136, (2S,4R)—N—((R)-2-(4-((4-(4′-bromo-5′-oxo-5′H-spiro[cyclohexane-1,7′-indolo[1,2-a]quinazolin]-10′-yl)piperidin-1-yl)methyl)piperidin-1-yl)-1-(4-(4-methylthiazol-5-yl)phenyl)-2-oxoethyl)-1-((S)-2-(4-cyclopropyl-1H-1,2,3-triazol-1-yl)-3,3-dimethylbutanoyl)-4-hydroxypyrrolidine-2-carboxamide]
SMARCA4; [1]
  DC50: < 10 nM
SMARCA4; [4]
  Dmax: > 90%
SMARCA2; [3]
  DC50: < 10 nM
  Dmax: > 90%
